These are literature values, as cited in article PMC9516332 (Frontiers in Oncology, 2022).

Series [1] has as its target panel of 255 wild-type kinases (Homo sapiens, UniProt P31749). The conditions noted are these: AKT1 kinase assay; 1 µmol/L single concentration; ref DOI: 10.1371/journal.pone.0092146; cited from earlier work.
For series [2], the target named is panel of 255 wild-type kinases (Homo sapiens, UniProt O75676). Particulars: MSK2; 1 µmol/L single concentration; ref DOI: 10.1371/journal.pone.0092146; cited from earlier work.
In series [3] the target is panel of 255 wild-type kinases (Homo sapiens, UniProt P49137). Particulars: kinase MAPKAPK2; 1 µmol/L single concentration; ref DOI: 10.1371/journal.pone.0092146; cited from earlier work.
The target of series [4] is panel of 255 wild-type kinases (Homo sapiens, UniProt P29597). The conditions noted are these: kinase TYK2; 1 µmol/L single concentration; ref DOI: 10.1371/journal.pone.0092146; cited from earlier work.
Series [5] deals with panel of 255 wild-type kinases (Homo sapiens, UniProt P49761). Particulars: kinase CLK3; 1 µmol/L single concentration; ref DOI: 10.1371/journal.pone.0092146; cited from earlier work.
Series [6] deals with T1, panel of 255 wild-type kinases (Homo sapiens, UniProt Q13976).
T1 sequence (Q13976 1-671): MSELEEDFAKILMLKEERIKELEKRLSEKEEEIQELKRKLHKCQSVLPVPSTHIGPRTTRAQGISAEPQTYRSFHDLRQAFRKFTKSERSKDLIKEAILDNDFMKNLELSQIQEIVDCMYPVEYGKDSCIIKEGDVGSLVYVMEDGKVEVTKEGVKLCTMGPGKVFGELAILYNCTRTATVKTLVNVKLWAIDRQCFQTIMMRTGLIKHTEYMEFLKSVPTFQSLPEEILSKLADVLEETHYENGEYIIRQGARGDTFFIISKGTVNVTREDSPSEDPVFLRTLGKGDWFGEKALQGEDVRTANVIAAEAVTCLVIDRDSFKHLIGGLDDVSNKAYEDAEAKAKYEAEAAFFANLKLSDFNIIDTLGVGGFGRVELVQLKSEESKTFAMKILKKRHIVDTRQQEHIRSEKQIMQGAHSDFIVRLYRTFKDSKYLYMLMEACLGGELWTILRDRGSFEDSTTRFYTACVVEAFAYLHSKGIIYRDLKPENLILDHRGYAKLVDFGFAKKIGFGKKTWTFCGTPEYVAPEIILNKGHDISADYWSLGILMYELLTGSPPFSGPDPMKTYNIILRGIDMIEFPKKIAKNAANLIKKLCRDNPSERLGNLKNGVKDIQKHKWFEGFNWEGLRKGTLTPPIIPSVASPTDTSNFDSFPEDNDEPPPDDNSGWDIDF
Particulars: kinase PGK; 1 µmol/L single concentration; ref DOI: 10.1371/journal.pone.0092146; cited from earlier work.

The target in series [7] is panel of 255 wild-type kinases (Homo sapiens, UniProt Q9UPE1). The conditions noted are these: MSSK1; 1 µmol/L single concentration; ref DOI: 10.1371/journal.pone.0092146; cited from earlier work.
For series [8], the target named is T2, panel of 255 wild-type kinases (Homo sapiens, UniProt P54760).
T2 sequence (P54760 16-987): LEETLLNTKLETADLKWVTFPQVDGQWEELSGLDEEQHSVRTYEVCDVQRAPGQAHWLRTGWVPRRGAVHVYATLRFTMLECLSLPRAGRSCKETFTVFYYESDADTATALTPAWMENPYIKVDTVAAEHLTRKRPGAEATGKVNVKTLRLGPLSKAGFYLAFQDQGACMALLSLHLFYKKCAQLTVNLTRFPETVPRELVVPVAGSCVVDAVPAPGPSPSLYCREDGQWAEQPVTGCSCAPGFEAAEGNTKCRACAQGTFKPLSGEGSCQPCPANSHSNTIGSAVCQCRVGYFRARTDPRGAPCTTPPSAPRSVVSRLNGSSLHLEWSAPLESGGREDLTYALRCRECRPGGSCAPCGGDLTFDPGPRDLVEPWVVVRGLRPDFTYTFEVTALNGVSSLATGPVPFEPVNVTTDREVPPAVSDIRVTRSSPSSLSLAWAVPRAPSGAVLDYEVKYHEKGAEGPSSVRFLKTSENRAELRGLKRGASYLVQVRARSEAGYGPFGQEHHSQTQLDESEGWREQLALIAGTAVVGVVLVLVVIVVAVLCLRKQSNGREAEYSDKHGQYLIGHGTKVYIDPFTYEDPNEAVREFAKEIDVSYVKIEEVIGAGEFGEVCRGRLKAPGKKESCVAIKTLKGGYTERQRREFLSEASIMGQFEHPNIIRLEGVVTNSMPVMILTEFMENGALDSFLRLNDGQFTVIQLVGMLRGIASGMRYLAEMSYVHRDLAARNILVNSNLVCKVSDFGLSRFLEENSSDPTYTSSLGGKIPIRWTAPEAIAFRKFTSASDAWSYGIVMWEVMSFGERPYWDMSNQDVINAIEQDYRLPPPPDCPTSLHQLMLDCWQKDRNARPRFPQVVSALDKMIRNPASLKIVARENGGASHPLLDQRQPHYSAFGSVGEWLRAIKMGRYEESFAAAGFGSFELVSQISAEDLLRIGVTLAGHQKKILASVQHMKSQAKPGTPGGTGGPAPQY
Particulars: kinase EPHB4; 1 µmol/L single concentration; ref DOI: 10.1371/journal.pone.0092146; cited from earlier work.

In series [9] the target is panel of 255 wild-type kinases (Homo sapiens, UniProt P17612). The conditions noted are these: kinase PKACα; 1 µmol/L single concentration; ref DOI: 10.1371/journal.pone.0092146; cited from earlier work.

Consider `CC(=O)Nc1cccc(-n2c(=O)n(C3CC3)c(=O)c3c(Nc4ccc(I)cc4F)n(C)c(=O)c(C)c32)c1` [trametinib], for which, in series [1], the “%-inhibition AKT1” value was -3%. Moreover, the “%-inhibition, MSK2” value in series [2] was -4.75%. Moreover, the “%-inhibition at 1 µmol/L, MAPKAPK2” value in [3] is listed as -0.335%. In addition, the “%-inhibition at 1 µmol/L, TYK2” value in [4] is on record as 2.16%. Also, the “%-inhibition at 1 µmol/L, CLK3” value in [5] is -0.0684%. For the same compound, the “%-inhibition at 1 µmol/L, PGK” value in [6] is listed as -1.31%. For the same compound, the “%-inhibition, MSSK1” value in [7] is reported as -5%. Further, the “%-inhibition at 1 µmol/L, EPHB4” value in [8] was -3.38%. Also, the “%-inhibition at 1 µmol/L, PKACα” value in series [9] is on record as 8.52%.

As for `CCCS(=O)(=O)Nc1ccc(F)c(C(=O)c2c[nH]c3ncc(-c4ccc(Cl)cc4)cc23)c1F` [vemurafenib], in series [1], the “%-inhibition AKT1” value was -4.52%. The “%-inhibition, MSK2” value in series [2] is -1%. In addition, the “%-inhibition at 1 µmol/L, MAPKAPK2” value in [3] is recorded as -16%. Moreover, the “%-inhibition at 1 µmol/L, TYK2” value in [4] is listed as 6%. Moreover, in series [5], the “%-inhibition at 1 µmol/L, CLK3” value is given as -14%. Moreover, the “%-inhibition at 1 µmol/L, PGK” value in series [6] is listed as -4.33%. In addition, the “%-inhibition, MSSK1” value in series [7] is on record as -6.65%. In addition, the “%-inhibition at 1 µmol/L, EPHB4” value in series [8] is on record as 3.73%. For the same compound, in series [9], the “%-inhibition at 1 µmol/L, PKACα” value was -4%.
